Assay results from PMC8222254, “Self-assembly of an anion receptor with metal-dependent kinase inhibition and potent in vitro anti-cancer properties” (Nature Communications, 2021).
Several values for one entry are separate records, joined by “and”; a condition that tells them apart may be missing. Equal values may be shown once. Read-outs that look alike come from different tables or passages of the source.

Columns and labels:
Assay in all cases: Chemosensitivity, 96 h continuous exposure, MTT assay;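 for SI (NPI): adult human brain neural progenitor non-cancer cells from an epilepsy surgery patient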;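 for Selectivity Index using the NPI non-cancer cell line: adult human brain neural progenitor non-cancer cells from an epilepsy surgery patient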
Type in all cases: cell-based, human
DLD-1 = test system: DLD-1;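 for SI (NPI): adult human brain neural progenitor non-cancer cells from an epilepsy surgery patient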;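 for Selectivity Index using the NPI non-cancer cell line: adult human brain neural progenitor non-cancer cells from an epilepsy surgery patient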
Method in brief: (§1)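 Cells were seeded overnight at 37 °C (2 × 10^3/well; GBM1 at 3 × 10^3/well on poly-L-ornithine/laminin in Neurobasal with hFGF/rhEGF), then exposed to compound concentration ranges for 96 h. Viability was read by MTT (4 h, formazan in DMSO, A540) and IC50 taken from dose–response curves.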

H460 = test system: H460
Method in brief: as §1

ARPE-19 non-cancer cells = test system: ARPE-19 non-cancer cells
Method in brief: as §1

BxPC3 = test system: BxPC3
Method in brief: as §1

MCF10A non-cancer cells = test system: MCF10A non-cancer cells
Method in brief: as §1

A549 = test system: A549
Method in brief: as §1

HCT116 p53+/+ = test system: HCT116 p53+/+
Method in brief: as §1

CC(=O)[O-].CC(=O)[O-].CC(=O)[O-].CC(=O)[O-].CC(=O)[O-].CC(=O)[O-].[Zn+2].[Zn+2].[Zn+2].c1ccc(-c2csc(NCCN(CCNc3nc(-c4ccccn4)cs3)CCNc3nc(-c4ccccn4)cs3)n2)nc1.c1ccc(-c2csc(NCCN(CCNc3nc(-c4ccccn4)cs3)CCNc3nc(-c4ccccn4)cs3)n2)nc1 [[L2Zn3]6+]
IC50 (DLD-1; DLD-1, 96 h, MTT, individual run, read-out: IC50 values for each replicate): 216 nM and 89 nM and 84 nM and 141 nM and 222 nM and 211 nM and 225 nM
IC50 (DLD-1; DLD-1, 96 h, MTT, mean of at least 3 independent experiments, read-out: Mean IC50): 170 nM
IC50 (DLD-1; DLD-1, mean of replicates, read-out: Mean IC50): 170 nM
IC50 (DLD-1; DLD-1, read-out: Mean IC50 values): 170 nM
Selectivity index (ARPE19) (DLD-1; IC50 ARPE-19 / IC50 DLD-1): 925.00
Selectivity index (MCF10A) (DLD-1; IC50 MCF10A / IC50 DLD-1): 950.82
Selectivity Index using the NPI non-cancer cell line (DLD-1; IC50 NP1 / IC50 DLD-1): 45.76
SI (ARPE19) (DLD-1; mean IC50 ARPE-19 / mean IC50 DLD-1): 925.00
SI (MCF10A) (DLD-1; mean IC50 MCF10A / mean IC50 DLD-1): 950.82
SI (NPI) (DLD-1; mean IC50 NP1 / mean IC50 DLD-1): 45.76
Relative potency (+ anion to no anion), Ratio + anion:no anion (DLD-1; ratio of IC50, DLD-1): 1
Selectivity indices relative to ARPE-19, Ratio + anion:no anion (DLD-1; ratio of SI (ARPE-19), DLD-1): 1
Selectivity indices relative to MCF10A, Ratio + anion:no anion (DLD-1; ratio of SI (MCF 10A), DLD-1): 1
IC50 (H460; H460, 96 h, MTT, individual run, read-out: IC50 values for each replicate): 186 nM and 273 nM and 557 nM and 236 nM and 441 nM and 594 nM and 235 nM
IC50 (H460; H460, 96 h, MTT, mean of at least 3 independent experiments, read-out: Mean IC50): 360 nM
IC50 (H460; H460, mean of replicates, read-out: Mean IC50): 360 nM
IC50 (H460; H460, read-out: Mean IC50 values): 360 nM
Selectivity index (ARPE19) (H460; IC50 ARPE-19 / IC50 H460): 436.81
Selectivity index (MCF10A) (H460; IC50 MCF10A / IC50 H460): 449.00
Selectivity Index using the NPI non-cancer cell line (H460; IC50 NP1 / IC50 H460): 21.61
SI (ARPE19) (H460; mean IC50 ARPE-19 / mean IC50 H460): 436.81
SI (MCF10A) (H460; mean IC50 MCF10A / mean IC50 H460): 449.00
SI (NPI) (H460; mean IC50 NP1 / mean IC50 H460): 21.61
Relative potency (+ anion to no anion), Ratio + anion:no anion (H460; ratio of IC50, H460): 1
Selectivity indices relative to ARPE-19, Ratio + anion:no anion (H460; ratio of SI (ARPE-19), H460): 1
Selectivity indices relative to MCF10A, Ratio + anion:no anion (H460; ratio of SI (MCF 10A), H460): 1
IC50 (ARPE-19 non-cancer cells; ARPE-19, 96 h, MTT, individual run, read-out: IC50 values for each replicate): 154000 nM and 160000 nM and 144000 nM and 171000 nM
IC50 (ARPE-19 non-cancer cells; ARPE-19, 96 h, MTT, mean of at least 3 independent experiments, read-out: Mean IC50): 157000 nM
IC50 (ARPE-19 non-cancer cells; ARPE-19, mean of replicates, read-out: Mean IC50): 157000 nM
IC50 (ARPE-19 non-cancer cells; ARPE-19 non-cancer, read-out: Mean IC50 values): 157000 nM
Relative potency (+ anion to no anion), Ratio + anion:no anion (ARPE-19 non-cancer cells; ratio of IC50, ARPE-19): 1
IC50 (BxPC3; BXPC3, mean of replicates, read-out: Mean IC50): 320 nM
IC50 (BxPC3; BXPC3, read-out: Mean IC50 values): 320 nM
IC50 (BxPC3; BxPC3, 96 h, MTT, individual run, read-out: IC50 values for each replicate): 228 nM and 147 nM and 595 nM and 533 nM and 171 nM and 249 nM
IC50 (BxPC3; BxPC3, 96 h, MTT, mean of at least 3 independent experiments, read-out: Mean IC50): 320 nM
Selectivity index (ARPE19) (BxPC3; IC50 ARPE-19 / IC50 BXPC3): 491.41
Selectivity index (MCF10A) (BxPC3; IC50 MCF10A / IC50 BXPC3): 505.12
Selectivity Index using the NPI non-cancer cell line (BxPC3; IC50 NP1 / IC50 BXPC3): 24.31
SI (ARPE19) (BxPC3; mean IC50 ARPE-19 / mean IC50 BxPC3): 491.41
SI (MCF10A) (BxPC3; mean IC50 MCF10A / mean IC50 BxPC3): 505.12
SI (NPI) (BxPC3; mean IC50 NP1 / mean IC50 BxPC3): 24.31
Relative potency (+ anion to no anion), Ratio + anion:no anion (BxPC3; ratio of IC50, BXPC3): 1
Selectivity indices relative to ARPE-19, Ratio + anion:no anion (BxPC3; ratio of SI (ARPE-19), BXPC3): 1
Selectivity indices relative to MCF10A, Ratio + anion:no anion (BxPC3; ratio of SI (MCF 10A), BXPC3): 1
IC50 (MCF10A non-cancer cells; MCF10A non-cancer, read-out: Mean IC50 values): 162000 nM
IC50 (MCF10A non-cancer cells; MCF10A, 96 h, MTT, individual run, read-out: IC50 values for each replicate): 169000 nM and 176000 nM and 140000 nM
IC50 (MCF10A non-cancer cells; MCF10A, 96 h, MTT, mean of at least 3 independent experiments, read-out: Mean IC50): 162000 nM
IC50 (MCF10A non-cancer cells; MCF10A, mean of replicates, read-out: Mean IC50): 162000 nM
Relative potency (+ anion to no anion), Ratio + anion:no anion (MCF10A non-cancer cells; ratio of IC50, MCF10A): 1
IC50 (A549; A549, 96 h, MTT, individual run, read-out: IC50 values for each replicate): 161 nM and 257 nM and 503 nM and 692 nM
IC50 (A549; A549, 96 h, MTT, mean of at least 3 independent experiments, read-out: Mean IC50): 403 nM
IC50 (A549; A549, mean of replicates, read-out: Mean IC50): 403 nM
IC50 (A549; A549, read-out: Mean IC50 values): 403 nM
Selectivity index (ARPE19) (A549; IC50 ARPE-19 / IC50 A549): 390.20
Selectivity index (MCF10A) (A549; IC50 MCF10A / IC50 A549): 401.09
Selectivity Index using the NPI non-cancer cell line (A549; IC50 NP1 / IC50 A549): 19.31
SI (ARPE19) (A549; mean IC50 ARPE-19 / mean IC50 A549): 390.20
SI (MCF10A) (A549; mean IC50 MCF10A / mean IC50 A549): 401.09
SI (NPI) (A549; mean IC50 NP1 / mean IC50 A549): 19.31
Relative potency (+ anion to no anion), Ratio + anion:no anion (A549; ratio of IC50, A549): 1
Selectivity indices relative to ARPE-19, Ratio + anion:no anion (A549; ratio of SI (ARPE-19), A549): 1
Selectivity indices relative to MCF10A, Ratio + anion:no anion (A549; ratio of SI (MCF 10A), A549): 1
IC50 (HCT116 p53+/+; HCT116 p53+/+, 96 h, MTT, mean of at least 3 independent experiments, read-out: Mean IC50): 466 nM
IC50 (HCT116 p53+/+; HCT116 p53+/+, mean of replicates, read-out: Mean IC50): 466 nM
IC50 (HCT116 p53+/+; HCT116 p53+/+, read-out: Mean IC50 values): 466 nM
Selectivity index (ARPE19) (HCT116 p53+/+; IC50 ARPE-19 / IC50 HCT116 p53+/+): 337.45 and 337.23
Selectivity index (MCF10A) (HCT116 p53+/+; IC50 MCF10A / IC50 HCT116 p53+/+): 346.87
Selectivity Index using the NPI non-cancer cell line (HCT116 p53+/+; IC50 NP1 / IC50 HCT116 p53+/+): 16.70
SI (ARPE19) (HCT116 p53+/+; mean IC50 ARPE-19 / mean IC50 HCT116 p53+/+): 337.45
SI (MCF10A) (HCT116 p53+/+; mean IC50 MCF10A / mean IC50 HCT116 p53+/+): 346.87
SI (NPI) (HCT116 p53+/+; mean IC50 NP1 / mean IC50 HCT116 p53+/+): 16.70
Relative potency (+ anion to no anion), Ratio + anion:no anion (HCT116 p53+/+; ratio of IC50, HCT116 p53+/+): 1
Selectivity indices relative to ARPE-19, Ratio + anion:no anion (HCT116 p53+/+; ratio of SI (ARPE-19), HCT116 p53+/+): 1
Selectivity indices relative to MCF10A, Ratio + anion:no anion (HCT116 p53+/+; ratio of SI (MCF 10A), HCT116 p53+/+): 1
